Test results reported in article PMC6154579, “Anti-Melanogenic Properties of Greek Plants. A Novel Depigmenting Agent from Morus alba Wood” (Molecules : A Journal of Synthetic Chemistry and Natural …, 2017).
Where “and” joins values, the source holds several entries; their conditions need not be identical. Equal values may be shown once. Entries after “also recorded” stand apart in the source; their conditions may differ. Read-outs that look alike come from different tables or passages of the source.

Legend:
mushroom tyrosinase = target: T1, mushroom tyrosinase (Agaricus bisporus, UniProt C7FF04); experiment: Tyrosinase inhibition assay (oxidation of L-DOPA, diphenolase activity); type: biochemical; conditions: for inhibition at 60 µM: read-out: Tyrosinase Inhibition % ± STD (60 μM); for inhibition at 300 µM: read-out: Tyrosinase Inhibition % ± STD (300 μM); for fold more potent tyrosinase inhibition than kojic acid: ratio of IC50 values vs reference kojic acid;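 for all read-outs here: dopachrome formation from L-DOPA by mushroom tyrosinase in phosphate buffer, compound preincubated with enzyme 10 min at 25 °C, inhibition versus sample-free control, enzyme-free blanks subtracted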
T1 construct: purchased Sigma-Aldrich
T1 sequence (C7FF04 1-392 limits assumed): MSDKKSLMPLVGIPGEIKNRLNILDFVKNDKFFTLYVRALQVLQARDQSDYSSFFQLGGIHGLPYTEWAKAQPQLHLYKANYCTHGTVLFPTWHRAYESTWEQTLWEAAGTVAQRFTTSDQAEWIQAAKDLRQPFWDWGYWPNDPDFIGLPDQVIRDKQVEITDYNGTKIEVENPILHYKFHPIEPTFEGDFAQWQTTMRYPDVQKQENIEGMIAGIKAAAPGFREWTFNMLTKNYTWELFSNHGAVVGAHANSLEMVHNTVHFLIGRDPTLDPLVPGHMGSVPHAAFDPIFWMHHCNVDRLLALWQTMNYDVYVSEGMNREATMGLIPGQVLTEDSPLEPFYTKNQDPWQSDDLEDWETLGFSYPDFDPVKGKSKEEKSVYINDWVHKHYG

B16F10 cells = experiment: MTT cytotoxicity assay; type: cell-based, Mouse; conditions: high concentrations
Method: Mouse skin melanoma (B16F10) cells were obtained from the American Tissue Culture Collection (Manassas, VA, USA) and were maintained in Dulbecco's modified Eagle’s medium (Gibco, Thermo Fischer Scientific, Waltham, MA, USA), supplemented with 10% (v/v) fetal bovine serum (Gibco, Thermo Fischer Scientific) and 2 mM glutamine (Gibco, Thermo Fischer Scientific) in a humidified incubator at 5% CO2 and 37 °C.
MTT cytotoxicity assay was performed as described previously. Briefly, B16F10 cells were cultured at 96-wellmicroplates (5000 cells/well). After 24 h the cells were treated with different concentrations of the extracts (in control cells an appropriate amount of DMSO was added). The MTT solution (MTT, Sigma-Aldrich) (1 mg/mL in serum free, phenol red free medium) was added 48 h after the addition of test extracts. After 4 h, the MTT solution was discarded and isopropanol was added to dissolve the formazan crystals. Absorbance was recorded at 570 nm using a microplate reader (EZ Read 400 ELISA microplate reader, Biochrom, Cambridge, UK). Survival of non-treated cells was set to 100%.

zebrafish embryos = experiment: In vivo inhibition of melanogenesis assay; conditions: embryos treated 24 to 48 hpf, ranking: most potent, followed by, weakest, Figure 5: MAM 70, F33 70, F38-42 10, F43 10, 1/5/6/7 50, 2 7, 11 10 μg/mL
[1] = compound at 60 μM, two independent experiments
[2] = compound at 300 μM, two independent experiments
[3] = diphenolase activity, three independent experiments, read-out: Tyrosinase Inhibition IC50 ± STD

## Oc1cccc(CCc2ccc(O)cc2O)c1 [2,4,3′-Trihydroxydihydrostilbene (7), 2,4,3′-Trihydroxydihydrostilbene]
Mushroom tyrosinase; [1]
  inhibition at 60 µM: 96.3 ± 0.5%
Mushroom tyrosinase; [2]
  inhibition at 300 µM: 97.8 ± 0.1%
Mushroom tyrosinase; [3]
  IC50: 0.8 ± 0.15 µM
Mushroom tyrosinase
  fold more potent tyrosinase inhibition than kojic acid: ~ 20 fold and 20 fold
B16F10 cells
  cytotoxicity in cells (in words): non-cytotoxic in high concentrations
Zebrafish embryos
  melanogenesis inhibition on zebrafish embryos (in words): significantly suppress in vivo melanogenesis; also recorded: most potent; also recorded: significantly suppressed in vivo melanogenesis

## O=Cc1ccc(O)cc1O [2,4-Dihydroxybenzaldehyde (9), 2,4-dihydroxybenzaldehyde]
Mushroom tyrosinase; [2]
  inhibition at 300 µM: 4.9 ± 0.3%

## Oc1cc(O)cc(CCc2ccc(O)cc2O)c1 [Dihydrooxyresveratrol (5), Dihydrooxyresveratrol]
Mushroom tyrosinase
  IC50: 0.3 ± 0.05 µM
  fold more potent tyrosinase inhibition than kojic acid: ~ 50 fold
  inhibition at 60 µM: 97.6 ± 0.2%
  inhibition at 300 µM: 98.2 ± 0.5%
Zebrafish embryos; listed as dihydrooxyresveratrol
  melanogenesis inhibition on zebrafish embryos (in words): only partially inhibited the melanogenesis

## CC(C)=CCc1c(-c2ccc(O)cc2O)oc2c(CC=C(C)C)c(O)cc(O)c2c1=O [Kuwanon C (2), kuwanon C]
Mushroom tyrosinase
  IC50: 76.2 ± 1.1 µM
Mushroom tyrosinase; [1]
  inhibition at 60 µM: 46.5 ± 1.3%
Mushroom tyrosinase; [2]
  inhibition at 300 µM: 75.6 ± 1.2%
Zebrafish embryos
  melanogenesis inhibition on zebrafish embryos (in words): weakest inhibitor of melanogenesis

## CC(C)=CCc1c(-c2ccc(O)cc2O)oc2c(C3C=C(C)CC(c4ccc(O)cc4O)C3C(=O)c3ccc(O)cc3O)c(O)cc(O)c2c1=O (stereo not drawn) [Kuwanon G (12), kuwanon G]
Mushroom tyrosinase
  IC50: 27.5 ± 1.2 µM
  inhibition at 60 µM: 59.1 ± 1.4%
  inhibition at 300 µM: 77.8 ± 2.8%

## CC(C)=CCc1c(O)ccc(C(=O)C2C(c3c(O)cc(O)c4c(=O)c(CC=C(C)C)c(-c5ccc(O)cc5O)oc34)C=C(C)CC2c2ccc(O)cc2O)c1O (stereo not drawn) [Kuwanon H (8), kuwanon H]
Mushroom tyrosinase
  IC50: > 100 µM
Mushroom tyrosinase; [1]
  inhibition at 60 µM: 46 ± 2.9%
Mushroom tyrosinase; [2]
  inhibition at 300 µM: 49 ± 2.6%

## Oc1cc(O)cc(-c2cc3ccc(O)cc3o2)c1 [Moracin M (11), moracin M]
Mushroom tyrosinase
  IC50: 8 ± 0.6 µM
Mushroom tyrosinase; [1]
  inhibition at 60 µM: 61.3 ± 1.2%
Mushroom tyrosinase; [2]
  inhibition at 300 µM: 87.2 ± 0.5%

## CC(C)=CCc1c(-c2ccc(O)cc2O)oc2c3c(cc(O)c2c1=O)OC(C)(C)C=C3 [Morusin (10), morusin]
Mushroom tyrosinase
  IC50: > 100 µM
Mushroom tyrosinase; [1]
  inhibition at 60 µM: 31 ± 3.2%
Mushroom tyrosinase; [2]
  inhibition at 300 µM: 49.9 ± 2.2%

## OC[C@H]1O[C@@H](Oc2cc(O)cc(/C=C/c3ccc(O[C@@H]4O[C@H](CO)[C@@H](O)[C@H](O)[C@H]4O)cc3O)c2)[C@H](O)[C@@H](O)[C@@H]1O [Mulberroside A (3), mulberroside A]
Mushroom tyrosinase
  IC50: > 100 µM
Mushroom tyrosinase; [1]
  inhibition at 60 µM: 43.1 ± 0.7%
Mushroom tyrosinase; [2]
  inhibition at 300 µM: 58.3 ± 1.4%

## Oc1cc(O)cc(/C=C/c2ccc(O)cc2O)c1 [Oxyresveratrol (1), oxyresveratrol]
Zebrafish embryos
  melanogenesis inhibition on zebrafish embryos (in words): significantly suppress in vivo melanogenesis; also recorded: most potent

## Oc1cccc(O)c1 [Resorcinol (4), resorcinol]
Mushroom tyrosinase
  IC50: 163 ± 18.2 µM
Mushroom tyrosinase; [1]
  inhibition at 60 µM: 38 ± 1.1%
Mushroom tyrosinase; [2]
  inhibition at 300 µM: 60.4 ± 1%

## O=C1c2c(O)cc(O)cc2OC(c2ccc(O)cc2O)C1O (stereo not drawn) [trans-Dihydromorin (6), trans-dihydromorin]
Mushroom tyrosinase; [1]
  inhibition at 60 µM: 73.1 ± 0.6%
Mushroom tyrosinase; [2]
  inhibition at 300 µM: 94.3 ± 0.1%
Mushroom tyrosinase; [3]
  IC50: 9.4 ± 1.3 µM
Zebrafish embryos
  melanogenesis inhibition on zebrafish embryos (in words): significantly suppress in vivo melanogenesis; also recorded: most potent
